From patent publication US20240148821A1, “PHARMACEUTICAL USE OF CYCLIC PEPTIDE COMPOUND” (CHUGAI SEIYAKU KABUSHIKI KAISHA, priority 2021, published 2024)
Bridge positions count the residues as written; N and C are the ends. Square brackets hold non-standard residues; d marks the D form. Peptide text beside a SMILES is read from it. * marks the point of attachment. hPhe(3,5-F2-4-CF3) = N[C@@H](CCc1cc(F)c(C(F)(F)F)c(F)c1)C(=O)O; hPhe(3-Cl-4-CF3) = N[C@@H](CCc1ccc(C(F)(F)F)c(Cl)c1)C(=O)O; NEtPhe(4-Me) = CCN[C@@H](Cc1ccc(C)cc1)C(=O)O; NMeGly(cPent) = CN[C@H](C(=O)O)C1CCCC1; NMeCha = CN[C@@H](CC1CCCCC1)C(=O)O; Hyp = O=C(O)[C@@H]1C[C@@H](O)CN1; NMeChg = CN[C@H](C(=O)O)C1CCCCC1; NMeI = CC[C@H](C)[C@H](NC)C(=O)O; NMeD = CN[C@@H](CC(=O)O)C(=O)O; CH2CONHtBu = CC(C)(C)NC(=O)C*; NMeL = CN[C@@H](CC(C)C)C(=O)O; d(β3hA) = C[C@@H](N)CC(=O)O; Azetidin(1-yl) = C1CN(*)C1; NMeS = CN[C@@H](CO)C(=O)O; dNMeS = CN[C@H](CO)C(=O)O; Morpholide = C1CN(*)CCO1; NMeA = CN[C@@H](C)C(=O)O; Piperidide = C1CCN(*)CC1; Pyrrolidide = C1CCN(*)C1; Ac5c = NC1(C(=O)O)CCCC1; Aze = O=C(O)[C@@H]1CCN1; Cyclopropyl = C1CC1*; Isopentyl = CC(C)CC*; Sar = CNCC(=O)O

Experiments:
[1] = target: protein-protein interaction between Kras and SOS1 (biotin-tagged human Kras loaded with GDP, His-tagged human SOS1) (Homo sapiens (Human), UniProt P01116, G12D); assay: Protein-protein interaction inhibition between Kras and SOS1 (KrasG12D-SOS PPI) using AlphaScreen; type: biochemical; conditions: AlphaScreen; biotin-tagged human Kras loaded with GDP, His-tagged human SOS1; read-out: KRAS G12D-SOS PPI IC50;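 also: kras produced in E. coli, Ni-coupled donor beads and streptavidin acceptor beads, excitation 680 nm with emission detected at 520–620 nm via singlet oxygen transfer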
[2] = tested on: Human pancreatic cancer cell line AsPC-1 (G12D mutation Kras); assay: AsPC-1 cell growth inhibition (AsPC-1 CGI); type: cell-based; conditions: read-out: AsPC-1 cell growth inhibition, 50% growth inhibitory concentration (IC50 value); 96 hours, CellTiter-Glo, values classified in ranges

Compound: CC[C@H](C)[C@@H]1NC(=O)[C@H](CC(C)C)N(C)C(=O)C[C@@H](C(=O)N2CCCC2)N(C)C(=O)[C@H]([C@@H](C)CC)N(C)C(=O)C2(CCCC2)NC(=O)[C@@H]2CCCN2C(=O)[C@H](CCc2cc(F)c(C(F)(F)F)c(F)c2)NC(=O)CN(C)C(=O)[C@H](Cc2ccc(C)cc2)N(CC)C(=O)[C@@H]2CCN2C(=O)[C@H](C)N(C)C1=O [Compound 1351] ([NMeL]I[NMeA][Aze][NEtPhe(4-Me)][Sar][hPhe(3,5-F2-4-CF3)]P[Ac5c][NMeI][NMeD]-Pyrrolidide; lactam N-11)
- IC50 [1]: 0.82 nM
- IC50 [2]: ≤ 20 nM

Compound: CC[C@H](C)[C@@H]1NC(=O)[C@H](CC(C)C)N(C)C(=O)C[C@@H](C(=O)N2CCCCC2)N(C)C(=O)[C@H](C2CCCCC2)N(C)C(=O)C2(CCCC2)NC(=O)[C@@H](COCCC(C)C)N(C)C(=O)[C@H](CCc2ccc(C(F)(F)F)c(Cl)c2)NC(=O)CN(C)C(=O)[C@H](CC2CCCCC2)N(C)C(=O)CN(C)C(=O)CN(C)C1=O [Compound 1436] ([NMeL]I[Sar][Sar][NMeCha][Sar][hPhe(3-Cl-4-CF3)][dNMeS](Isopentyl)[Ac5c][NMeChg][NMeD]-Piperidide; lactam N-11)
- IC50 [1]: 39 nM
- IC50 [2]: > 500 nM

Compound: CCO[C@@H]1C[C@H]2C(=O)NC3(CCCC3)C(=O)N(C)[C@@H](C3CCCC3)C(=O)N(C)[C@H](C(=O)N3CCC3)CC(=O)N(C)[C@@H](CC(C)C)C(=O)N[C@@H]([C@@H](C)CC)C(=O)N(C)[C@@H](C)C(=O)N3CC[C@H]3C(=O)N(C)[C@@H](CC3CCCCC3)C(=O)N(C)CC(=O)N[C@@H](CCc3ccc(C(F)(F)F)c(Cl)c3)C(=O)N2C1 [Compound 1158] ([NMeL]I[NMeA][Aze][NMeCha][Sar][hPhe(3-Cl-4-CF3)][Hyp](Et)[Ac5c][NMeGly(cPent)][NMeD]-{Azetidin(1-yl)}; lactam N-11)
- IC50 [1]: 0.52 nM
- IC50 [2]: ≤ 20 nM

Compound: CC[C@H](C)[C@@H]1NC(=O)[C@H](CC(C)C)N(C)C(=O)C[C@@H](C)NC(=O)[C@H](C2CCCC2)N(C)C(=O)C2(CCCC2)NC(=O)[C@@H]2CCCN2C(=O)[C@H](CCc2ccc(C(F)(F)F)c(Cl)c2)NC(=O)CN(C)C(=O)[C@H](C)N(C)C(=O)[C@@H]2CCN2C(=O)[C@H](C)N(C)C1=O [Compound 1300] (cyclo([Ac5c][NMeGly(cPent)][d(β3hA)][NMeL]I[NMeA][Aze][NMeA][Sar][hPhe(3-Cl-4-CF3)]P))
- IC50 [1]: 94 nM
- IC50 [2]: > 500 nM

Compound: CC[C@H](C)[C@@H]1NC(=O)[C@H](CC(C)C)N(C)C(=O)C[C@@H](C(=O)N2CCCCC2)N(C)C(=O)[C@H](COC2CC2)N(C)C(=O)C2(CCCC2)NC(=O)[C@@H]2CCCN2C(=O)[C@H](CCc2ccc(C(F)(F)F)c(Cl)c2)NC(=O)CN(C)C(=O)[C@H](CC2CCCCC2)N(C)C(=O)[C@@H]2CCN2C(=O)[C@H](C)N(C)C1=O [Compound 1690] ([NMeL]I[NMeA][Aze][NMeCha][Sar][hPhe(3-Cl-4-CF3)]P[Ac5c][NMeS](Cyclopropyl)[NMeD]-Piperidide; lactam N-11)
- IC50 [1]: 97 nM
- IC50 [2]: > 500 nM

Compound: CC[C@H](C)[C@@H]1NC(=O)[C@H](CC(C)C)N(C)C(=O)C[C@@H](C(=O)N2CCCCC2)N(C)C(=O)[C@H](C2CCCCC2)N(C)C(=O)C2(CCCC2)NC(=O)[C@H](COCC(=O)NC(C)(C)C)N(C)C(=O)[C@H](CCc2ccc(C(F)(F)F)c(Cl)c2)NC(=O)CN(C)C(=O)[C@H](CC2CCCCC2)N(C)C(=O)CN(C)C(=O)CN(C)C1=O [Compound 727] ([NMeL]I[Sar][Sar][NMeCha][Sar][hPhe(3-Cl-4-CF3)][NMeS](CH2CONHtBu)[Ac5c][NMeChg][NMeD]-Piperidide; lactam N-11)
- IC50 [1]: 6.9 nM
- IC50 [2]: > 500 nM

Compound: CCO[C@@H]1C[C@H]2C(=O)NC3(CCCC3)C(=O)N(C)[C@@H](C3CCCCC3)C(=O)N(C)[C@H](C(=O)N3CCOCC3)CC(=O)N(C)[C@@H](CC(C)C)C(=O)N[C@@H]([C@@H](C)CC)C(=O)N(C)CC(=O)N(C)CC(=O)N(C)[C@@H](CC3CCCCC3)C(=O)N(C)CC(=O)N[C@@H](CCc3ccc(C(F)(F)F)c(Cl)c3)C(=O)N2C1 [Compound 1990] ([NMeL]I[Sar][Sar][NMeCha][Sar][hPhe(3-Cl-4-CF3)][Hyp](Et)[Ac5c][NMeChg][NMeD]-Morpholide; lactam N-11)
- IC50 [1]: 0.43 nM
- IC50 [2]: ≤ 20 nM

Compound: CC[C@H](C)[C@@H]1NC(=O)[C@H](CC(C)C)N(C)C(=O)C[C@@H](C(=O)N2CCC2)N(C)C(=O)[C@H]([C@@H](C)CC)N(C)C(=O)C2(CCCC2)NC(=O)[C@@H]2CCCN2C(=O)[C@H](CCc2ccc(C(F)(F)F)c(Cl)c2)NC(=O)CN(C)C(=O)[C@H](CC2CCCCC2)N(C)C(=O)[C@@H]2CCN2C(=O)[C@H](C)N(C)C1=O [Compound 150] ([NMeL]I[NMeA][Aze][NMeCha][Sar][hPhe(3-Cl-4-CF3)]P[Ac5c][NMeI][NMeD]-{Azetidin(1-yl)}; lactam N-11)
- IC50 [1]: 1.3 nM
- IC50 [2]: ≤ 20 nM
